Results taken from US20130224855A1, “CULTURE MEDIUM FOR EUKARYOTIC CELLS” (priority 2010, published 2013).
Peptide text beside a SMILES is read from it.

Tested on: IgG expressing CHO cell line (CHO-2: ATCC CRL 11397, producing IgG4)
Test: Growth and production curves of IgG expressing CHO cells in suspension culture in supplemented chemically defined medium
Format: cell-based, Chinese hamster
Conditions: for Cell growth (area under curve) after 14 days: dimensionless AUC
Description: The cell culture assay was carried out in commercially available IS CHO-CD medium (Irvine Scientific, Cat. No. 91119). […] Penicillin and streptomycin were added to prevent any bacterial growth during the growth assay. The media was supplemented with β-Alanine, γ-glutamyl cysteine, glycyl-glycine, L-homoserine or N-acetyl methionine, all purchased from Sigma Aldrich, Germany, in varying concentrations (1×10^-5 to 1×10^-1% (w/v), see Table 2). The supplemented medium was mixed with a vortex mixture, filtered using a 0.22 μm filter and subsequently used in a growth assay. An IgG expressing CHO cell line was used (CHO-2: ATCC CRL 11397, producing IgG4). The cell lines were grown in the adherent conditions for a few passages and once confluent, they were transferred to animal-free conditions in the supplemented media described in Example 5. […] Chemically defined media with and without added amino acid derivatives were tested. No fresh media was added during the growth assay. Cells were counted using the […] counter (Innovatis, Germany). The cell counts were used to calculate the area under the growth curve and represented as dimensionless area under curve (AUC) values as described in detail in Ling, C. X, Huang, J. and Zhang, H. (2003), International joint conferences on artificial intelligence, pp. 329-341. The supernatant samples were taken every alternate days for the IgG production measurements. IgG production was measured using sandwich ELISA method. […] The cells were visually inspected using a phase contrast microscope (Zeiss Axiovert 25, 400× magnification). […] Only single cells were observed and no aggregation of cells was seen. The cell shape was also positively affected. […] This was in contrast with the observation that a lot of cell aggregates were present in CHO cell cultures grown in chemically defined medium without amino acid derivatives.

[1] = added at 1 × 10^−1 % w/v in IS CHO-CD medium
[2] = added at 1 × 10^−1 % w/v in IS CHO-CD medium, ratio of cumulative IgG (mg/ml) and AUC at day 11
[3] = added at 1 × 10^−2 % w/v in IS CHO-CD medium
[4] = added at 1 × 10^−3 % w/v in IS CHO-CD medium
[5] = added at 1 × 10^−4 % w/v in IS CHO-CD medium
[6] = added at 1 × 10^−5 % w/v in IS CHO-CD medium

Row | SMILES | Cell growth (area under curve) after 14 days [1] | Specific IgG production after 11 days [2] | Specific IgG production after 11 days [3] | Cell growth (area under curve) after 14 days [3] | Specific IgG production after 11 days [4] | Cell growth (area under curve) after 14 days [4] | Specific IgG production after 11 days [5] | Cell growth (area under curve) after 14 days [5] | Specific IgG production after 11 days [6] | Cell growth (area under curve) after 14 days [6]
1 | CSCC[C@H](NC(C)=O)C(=O)O [N-acetyl methionine] | 48.6 | 91.9 | 90.4 | 47.9 | 94.4 | 46.0 | 90.3 | 38.6 | 81.3 | 41.2
2 | N[C@@H](CCC(=O)N[C@@H](CS)C(=O)O)C(=O)O [γ-glutamyl cysteine] | 46.1 | 78.2 | 105.9 | 42.8 | 68.33 | 58.0 | 77.2 | 47.6 | 72.5 | 58.9
3 | N[C@@H](CCO)C(=O)O [L-homoserine] | 45.7 | 122.0 | 72.0 | 59.1 | 96.8 | 39.4 |  |  |  | 
4 | NCC(=O)NCC(=O)O [Glycyl-glycine] (H-Gly-Gly-OH) | 50.6 | 86.6 | 95.8 | 48.2 | 104.2 | 49.6 | 113.5 | 47.7 | 102.0 | 51.0
5 | NCCC(=O)O [β-alanine] | 62.5 | 92.8 | 108.6 | 51.3 | 97.1 | 50.6 |  |  |  | 
